Experimental data from patent US20130029928A1 (priority 2010, published 2013).
Like-named read-outs stand apart in the source and are kept apart here.

Experiment: Phase I study CXR1002-001: plasma pharmacokinetics (LC-MS/MS)
Format: in vivo, human
Details: human, plasma, oral; for concentration at 843 h / concentration at 844 h / concentration at 864 h / concentration at 3 h / concentration at 4 h / concentration at 24 h / concentration at 168 h / concentration at 170 h / concentration at 171 h / concentration at 192 h / concentration at 336 h / concentration at 338 h / concentration at 339 h / concentration at 340 h / concentration at 360 h / concentration at 504 h / concentration at 506 h / concentration at 507 h / concentration at 508 h / concentration at 528 h / concentration at 672 h / concentration at 674 h / concentration at 675 h / concentration at 676 h / concentration at 696 h / concentration at 840 h / concentration at 842 h / concentration at 2 h / concentration at 172 h: read-out: Concentration; for concentration at 864 h: 864 hr (Day 37); for concentration at 24 h: 24 hr (Day 2); for concentration at 168 h: 168 hr (Day 8); for concentration at 336 h: 336 hr (Day 15); for concentration at 504 h: 504 hr (Day 22); for concentration at 528 h: 528 hr (Day 23); for concentration at 672 h: 672 hr (Day 29); for concentration at 840 h: 840 hr (Day 36)
Excerpt: PK samples, PD (fasting) samples, blood glucose, and blood triglyceride samples, were taken over a 6-week period.
Dose limiting toxicity (DLT) will be based on the toxicity assessments over the first 3-week period of the repeat dosing schedule. PK samples (single blood sample) were taken on the following basis: • Every 6 weeks during the repeat dosing phase • If dosing is interrupted or stopped, samples will be taken at intervals according to patient convenience • PK sampling for safety evaluation may take place at any time, as clinically indicated
Plasma samples were collected after the single 50 mg dose at the following timepoints: Pre-dose, and then 0.25, 0.5, 0.75, 1, 1.5, 2, 3, 4, 6, 24, 48, and 72 hours after administration and then once weekly at weeks 2, 3, 4, 5, and 6 (days 8, 15, 22, 29, and 36). For patients treated with the weekly repeat dose, plasma samples were collected at the following timepoints: Pre-dose and then 2, 3, 4 and 24 hours after administration for a total of 6 weeks. Thereafter a single sample was collected every 6 weeks for monitoring of exposure during long term treatment. Plasma samples were processed at site and stored at −80° C. prior to batch shipment to the analytical laboratory.

[1] = 300 mg, Patient 014 Dose 300 mg
[2] = 450 mg, Patient 015 Dose 450 mg
[3] = 450 mg, Patient 016 Dose 450 mg
[4] = 450 mg, Patient 017 Dose 450 mg
[5] = 600 mg, Patient 018, 600 mg, person
[6] = 600 mg, Patient 020, 600 mg, person
[7] = 600 mg, Patient 021, 600 mg, person

Work on `O=C(O)C(F)(F)C(F)(F)C(F)(F)C(F)(F)C(F)(F)C(F)(F)C(F)(F)F` [CXR1002] yielded a concentration at 843 h [1] of 520 µM, a concentration at 844 h [1] of 563 µM and a concentration at 864 h [1] of 488 µM. For the same molecule, the concentration at 12 week (300 mg, Patient 014 Dose 300 mg, Week 12) was 890 µM, the concentration at 18 week (300 mg, Patient 014 Dose 300 mg, Week 18) was 980 µM and the concentration at 3 h [2] was 231 µM. The concentration at 4 h [2] was 217 µM, the concentration at 24 h [2] was 126 µM and the concentration at 168 h [2] was 138 µM. For the same molecule, the concentration at 170 h [2] was 325 µM, the concentration at 171 h [2] was 314 µM and the concentration at 192 h (450 mg, Patient 015 Dose 450 mg, 192 hr (Day 9)) was 294 µM. It also gave a concentration at 336 h [2] of 286 µM, a concentration at 338 h [2] of 463 µM and a concentration at 339 h [2] of 393 µM. The concentration at 340 h [2] was 424 µM, the concentration at 360 h (450 mg, Patient 015 Dose 450 mg, 360 hr (Day 16)) was 412 µM and the concentration at 504 h [2] was 387 µM. For the same molecule, the concentration at 506 h [2] was 579 µM, the concentration at 507 h [2] was 548 µM and the concentration at 508 h [2] was 513 µM. For the same molecule, the concentration at 528 h [2] was 551 µM, the concentration at 672 h [2] was 544 µM and the concentration at 674 h [2] was 622 µM. The concentration at 675 h [2] was 633 µM, the concentration at 676 h [2] was 675 µM and the concentration at 696 h (450 mg, Patient 015 Dose 450 mg, 696 hr (Day 30)) was 708 µM. The concentration at 840 h [2] was 575 µM, the concentration at 842 h [2] was 703 µM and the concentration at 843 h [2] was 655 µM. It also gave a concentration at 844 h [2] of 801 µM, a concentration at 864 h [2] of 592 µM and a concentration at 2 h [3] of 108 µM. The concentration at 3 h [3] was 126 µM, the concentration at 4 h [3] was 88.1 µM and the concentration at 24 h [3] was 164 µM. It also gave a concentration at 170 h [3] of 328 µM, a concentration at 171 h [3] of 255 µM and a concentration at 172 h [3] of 244 µM. It also gave a concentration at 192 h (450 mg, Patient 016 Dose 450 mg, 192 hr (Day 9)) of 348 µM, a concentration at 336 h [3] of 287 µM and a concentration at 338 h [3] of 418 µM. The concentration at 339 h [3] was 454 µM, the concentration at 340 h [3] was 442 µM and the concentration at 360 h (450 mg, Patient 016 Dose 450 mg, 360 hr (Day 16)) was 471 µM. The concentration at 504 h [3] was 546 µM, the concentration at 506 h [3] was 693 µM and the concentration at 507 h [3] was 721 µM. It also gave a concentration at 508 h [3] of 698 µM, a concentration at 528 h [3] of 692 µM and a concentration at 672 h [3] of 605 µM. It also gave a concentration at 674 h [3] of 907 µM, a concentration at 675 h [3] of 745 µM and a concentration at 676 h [3] of 732 µM. For the same molecule, the concentration at 696 h (450 mg, Patient 016 Dose 450 mg, 696 hr (Day 30)) was 871 µM, the concentration at 2 h [4] was 99.7 µM and the concentration at 3 h [4] was 136 µM. The concentration at 4 h [4] was 163 µM, the concentration at 336 h [4] was 216 µM and the concentration at 338 h [4] was 325 µM. It also gave a concentration at 339 h [4] of 342 µM, a concentration at 360 h (450 mg, Patient 017 Dose 450 mg, 360 hr) of 258 µM and a concentration at 672 h [4] of 404 µM. It also gave a concentration at 674 h [4] of 451 µM, a concentration at 675 h [4] of 497 µM and a concentration at 676 h [4] of 485 µM. It also gave a concentration at 696 h (450 mg, Patient 017 Dose 450 mg, 696 hr) of 483 µM, a concentration at 2 h [5] of 339 µM and a concentration at 3 h [5] of 280 µM. The concentration at 4 h [5] was 248 µM, the concentration at 24 h [5] was 213 µM and the concentration at 168 h [5] was 181 µM. It also gave a concentration at 170 h [5] of 398 µM, a concentration at 171 h [5] of 407 µM and a concentration at 192 h (600 mg, Patient 018, 600 mg, person, 192 hr (day 9)) of 386 µM. It also gave a concentration at 336 h [5] of 356 µM, a concentration at 338 h [5] of 551 µM and a concentration at 339 h [5] of 563 µM. It also gave a concentration at 340 h [5] of 591 µM, a concentration at 360 h (600 mg, Patient 018, 600 mg, person, 360 hr (Day 16)) of 554 µM and a concentration at 2 h [6] of 208 µM. The concentration at 4 h [6] was 180 µM, the concentration at 24 h [6] was 413 µM and the concentration at 168 h [6] was 125 µM. The concentration at 170 h [6] was 327 µM, the concentration at 171 h [6] was 310 µM and the concentration at 172 h [6] was 279 µM. The concentration at 192 h (600 mg, Patient 020, 600 mg, person, 192 hr (day 9)) was 268 µM, the concentration at 336 h [6] was 272 µM and the concentration at 338 h [6] was 474 µM. For the same molecule, the concentration at 339 h [6] was 434 µM, the concentration at 340 h [6] was 438 µM and the concentration at 360 h (600 mg, Patient 020, 600 mg, person, 360 hr (Day 16)) was 410 µM. It also gave a concentration at 504 h [6] of 441 µM, a concentration at 506 h [6] of 477 µM and a concentration at 507 h [6] of 526 µM. The concentration at 508 h [6] was 536 µM, the concentration at 528 h [6] was 563 µM and the concentration at 672 h [6] was 540 µM. The concentration at 674 h [6] was 547 µM, the concentration at 675 h [6] was 603 µM and the concentration at 676 h [6] was 652 µM. It also gave a concentration at 696 h (600 mg, Patient 020, 600 mg, person, 696 hr (Day 30)) of 615 µM, a concentration at 840 h [6] of 582 µM and a concentration at 842 h [6] of 700 µM. For the same molecule, the concentration at 843 h [6] was 764 µM, the concentration at 844 h [6] was 770 µM and the concentration at 864 h [6] was 703 µM. The concentration at 2 h [7] was 77.2 µM, the concentration at 3 h [7] was 121 µM and the concentration at 24 h [7] was 203 µM. For the same molecule, the concentration at 168 h [7] was 218 µM, the concentration at 170 h [7] was 504 µM and the concentration at 171 h [7] was 417 µM. It also gave a concentration at 172 h [7] of 451 µM.
